Results reported in ChEMBL document CHEMBL5729064, “Benzofuran, benzothiophene, and indole analogs that inhibit the formation of tau oligomers and their method of use” (2022).

target: Microtubule-associated protein tau (Homo sapiens, UniProt P10636); experiment: AlphaLisa Assay: Tau target (equal mixture of each construct at 300 nM) was prepared in buffer (Tris-HCl pH 7.4) and was incubated in 96-well plates at room temperature for 4 hours with vehicle control (DMSO) and a dose range of a compound of the disclosure (0.098 uM-50 uM). AlphaLisa acceptor beads & donor beads with ligands to the epitope tags (Perkin Elmer) were diluted (final 20 ug/mL per bead) in bead buffer (25 mM HEPES pH 7.4, 100 mM NaCl, 0.1% Tween-20), added to the wells and incubated 1 hour at room temperature. The positive control (non-incubated target) & blank (no tau) were prepared and mixed with beads in bead buffer and the plate was read immediately using the EnVision plate reader (Perkin Elmer).
Sequence (P10636 whole entry): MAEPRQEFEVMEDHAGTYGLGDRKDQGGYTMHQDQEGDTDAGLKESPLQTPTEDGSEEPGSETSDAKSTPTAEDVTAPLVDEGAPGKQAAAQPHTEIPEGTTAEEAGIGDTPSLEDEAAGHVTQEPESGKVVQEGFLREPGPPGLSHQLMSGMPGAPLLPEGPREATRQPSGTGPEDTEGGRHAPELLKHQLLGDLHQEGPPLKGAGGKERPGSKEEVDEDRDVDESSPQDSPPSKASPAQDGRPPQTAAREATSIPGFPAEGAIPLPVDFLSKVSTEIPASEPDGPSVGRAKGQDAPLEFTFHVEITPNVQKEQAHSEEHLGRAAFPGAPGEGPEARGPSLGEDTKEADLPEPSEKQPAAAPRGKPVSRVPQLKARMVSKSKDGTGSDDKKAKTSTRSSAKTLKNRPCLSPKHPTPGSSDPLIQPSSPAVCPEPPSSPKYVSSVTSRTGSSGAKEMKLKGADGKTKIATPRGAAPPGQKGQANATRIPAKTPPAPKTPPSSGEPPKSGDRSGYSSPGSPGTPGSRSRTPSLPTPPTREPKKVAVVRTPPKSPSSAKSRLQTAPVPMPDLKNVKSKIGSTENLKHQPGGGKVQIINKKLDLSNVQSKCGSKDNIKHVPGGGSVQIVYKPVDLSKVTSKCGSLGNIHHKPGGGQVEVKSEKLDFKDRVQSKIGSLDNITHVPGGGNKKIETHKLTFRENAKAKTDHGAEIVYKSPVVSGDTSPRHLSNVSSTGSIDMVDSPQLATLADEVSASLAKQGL

| Structure (SMILES) | IC50 [µM] |
| --- | --- |
| CC(=O)CCc1oc2cc(-c3cccnc3)ccc2c1-c1ccc(C)o1 | 4.02 |
| COc1cccc(-c2ccc3oc(CCC(C)=O)c(-c4ccc(C)o4)c3c2)c1 | 3.03 |
| COc1cc(-c2ccc3c(-c4ccc(C)o4)c(CCC(C)=O)oc3c2)ccn1 | 1.57 |
| CC(=O)CCc1oc2ccc(-c3ccncc3)cc2c1-c1ccc(C)o1 | 6.35 |
| Cc1ccc(-c2c(CCc3nc4ccccc4[nH]3)oc3ccc(Br)cc23)o1 | 2.06 |
| Cc1ccc(C(C)(O)CCc2oc3ccc(Br)cc3c2-c2ccc(C)o2)cc1 (stereo unspecified) | 1.93 |
| CC(=O)CCc1oc2ccc(-c3cccnc3)cc2c1-c1ccc(C)o1 | 7.55 |

Molecules with a lower IC50, results first:

| IC50 [µM] | Structure (SMILES) |
| --- | --- |
| 0.1 | Cc1ccc(-c2c(CCC(C)(C)O)oc3ccc(Br)cc23)o1 |
| 0.1 | COc1cc(-c2ccc3oc(CCC(C)=O)c(-c4ccc(C)o4)c3c2)ccn1 |
| 1.39 | CC(=O)CCc1oc2ccc(-c3cccc(O)c3)cc2c1-c1ccc(C)o1 |
| 1.27 | COc1ccc(-c2ccc3oc(CCC(C)=O)c(-c4ccc(C)o4)c3c2)cn1 |
